Assay results: patent US20190359653A1, “SELECTIVE PEPTIDE INHIBITORS OF FRIZZLED” (Genentech, Inc., priority 2016, published 2019)

How the values were obtained:
[1] = system: Lgr5-GFP organoids pre-treated with CHIR99021; APC^min organoids; assay: RT-PCR in organoids with active downstream Wnt signaling (CHIR99021 or APC^min); assay type: cell-based, mouse; conditions: peptide 100 μM, 24 h; CHIR99021 5 μM pre-treatment or Apc mutant background
Experimental: Mouse organoids were established from isolated crypts collected from the entire length of the small intestine and maintained as previously described (Sato et al. (2009) Nature 459, 262-265 (2009). All mouse derived tissue was performed according to the animal use guidelines of Genentech, a Member of the Roche Group, and the Institutional Animal Care and Use Committee, conforming to California State legal and ethical practices. Mouse sex was not selected for. Organoids were passaged at least twice per week and grown using IntestiCult Organoid growth media (cat. no. 06005; StemCell Technologies). Peptides were suspended in DMSO and dissolved in media to 1% DMSO final concentration, then added to organoids to initiate drug treatment. Antibodies were added to 10 μg/ml concentration. […]
Briefly, Lgr5-GFP organoids were pre-treated with DMSO or the Gsk3β inhibitor CHIR99021 (5 μM) for 24 h, then treated with DMSO, dFz7-21 (100 μM), or Fz7-21S (100 μM)±CHIR99021. Transcripts were quantified by RT-PCR for Axin2 (FIG. 42A), and Asc12 (FIG. 42B). In a second set of experiments, APC^min organoids were cultured and treated with DMSO, dFz7-21 (100 μM), Fz7-21S (100 μM) for 24 h, and transcripts were quantified by RT-PCR for Axin2 (FIG. 42C), Asc12 (FIG. 42D), and Lgr5 ([…]).

[2] = system: Wnt3a-stimulated β-catenin signaling in HEK293-TB cells; assay: luciferase reporter assay, HEK293-TB cells transfected with pCDNA3.2-Wnt3a; assay type: cell-based
[3] = system: Wnt1-stimulated β-catenin signaling in HEK293-TB cells; assay: luciferase reporter assay, HEK293-TB cells transfected with pCDNA3.2-Wnt1; assay type: cell-based
[4] = system: receptor-independent β-catenin signaling in 6-BIO-treated HEK293-TB cells; assay: epistasis study, HEK293-TB cells stimulated with 6-BIO; assay type: cell-based; conditions: 10 μM 6-BIO, 6 hr; FIG. 2E
[5] = system: Wnt3a binding to FZD1 CRD, FZD2 CRD, and FZD7 CRD; assay: ELISA of biotinylated Wnt3a binding to FZD CRD-Fc; conditions: peptide 0-10 μM
Experimental: 384-well Maxisorp plates (cat. no. 464718; Thermo Scientific) were incubated with 30 μL of Neutravidin (cat. no. 31000, Thermo Scientific; 2 μg/mL in PBS) overnight at 4° C. Plates were then washed with PBST and blocked with PBS/1% BSA for 1 hour at RT and then washed with PBST prior to further processing. The binding assay was conducted in 96 well plates (cat no. 83007-374; VWR) which were blocked with PBS/1% BSA overnight at 4° C. hFZD4 CRD-Fc or hFZD7 CRD-Fc (63 ng/mL) were incubated with either Bio-Wnt3a (25 ng/mL) or Bio-Wnt5a (50 ng/mL) in the presence of 4-fold serial dilutions of the indicated peptide in PBS overnight at 4° C. All assays included hFZD9 CRD-mIgG2A protein as a negative control. hFZD7 CRD-His was suspended in 150 mM NaCl, 50 mM Tris-HCl at pH 7.5 and when used in assays an equal volume of the same buffer control was used. The binding assay mixtures were transferred to the Neutravidin coated plates and incubated for ˜1 h at RT. The wells were then washed with PBST, incubated with anti-hIgG1-HRP (1:10,000 suspended in PBS supplemented with 1% BSA; cat. no. A18817, Invitrogen), and washed again with PBST. The signal was developed with the addition of TMB reagent (following the manufacturer's recommendation; KPL; 50-76-00) for 15 min prior to the addition of an equal volume of 1 M phosphoric acid for 10 min Absorbance was measured at 450 nm using a Tekan M1000 plate reader. Values were collected and plotted using Prism Graphpad software. All assay conditions using peptides were at 1% DMSO final concentration.
Without being bound be theory, the substantial conformational change induced by dFz7-21 on hFZD7 CRD, as exemplified by the altered geometry of the lipid binding cavity, may facilitate the accommodation of two Wnt molecules simultaneously onto the hFZD7 CRD dimer (FIG. 4e-h).
Similar results were observed using Wnt3a. […] Binding of Wnt3a to FZD1 CRD, FZD2 CRD, and FZD7 CRD increased in the presence of dFz7-21 at concentrations below about 0.5 μM (FIG. 22E), with the most binding seen in the presence of 0.01 μM-0.05 μM dFz7-21. […] Fz7-21S had no effect on Binding of Wnt3a to any of the FZD CRDs tested (FIG. 22F).

Sequence	stem cell (Lgr5, Ascl2) and Wnt signaling (Axin2) markers [1]	inhibition of Wnt3a signaling [2]	inhibition of Wnt1 signaling [3]	inhibition of Wnt signaling in 6-BIO-treated cells [4]	effect on Wnt3a binding to FZD1, FZD2 and FZD7 CRD [5]
LPSDDLEFWCHVMY [dFz7-21]	Little or no effect	–	–	–	–
LPSDDLEFWSHVMY [Fz7-21S, negative control]	–	not found to inhibit	not found to inhibit	Neither Fz7-21 nor Fz7-21S inhibited	showed no effect
